Experiments:
[1] = tested on: SH-SY5Y cells over-expressing α-syn; test: Cell viability (MTS reduction) in SH-SY5Y cells over-expressing α-synuclein; format: cell-based; settings: Homo sapiens, 336 h, α-syn over-expression (−dox), compounds at 0.1 nM, +dox control = 100, 14 days, read-out: Relative cell viability protection
Experimental: Cell Culture. SH-SY5Y cells stably transfected with a doxycyline-inducible wild-type α-synuclein (α-syn) gene along with control SH-SY5Y cells over-expressing the β-galactosidase (β-gal) gene (a gift from L. Stefanis, Division of Basic Neurosciences, Biomedical Research Foundation of the Academy of Athens, Athens, Greece) are cultured as described by Vekrellis et al. (Vekrellis K, Xilouri M, Emmanouilidou E, Stefanis L. (2009). Inducible over-expression of α-syn in human neuronal cells leads to caspase-dependent non-apoptotic death. J Neurochem 109, 1348-1362). In accordance with this method, cells are cultured and maintained in RPMI 1640, 10% fetal bovine serum supplemented with 250 μg/mL G418 and 50 μg/mL Hygromycin B. Expression of α-syn is switched off in stock cultures with doxycycline (2 μg/mL). For experimental procedures, cells are plated at (4−8×10^4 cells/cm^2) and differentiated in absence of doxycycline and in the presence of 20 μM all-trans retinoic acid (RA) (Sigma, St Louis, Mo., USA).
Viability Assay: Cells are cultured in 96-well plates. After 24 h, cells are treated with RA and Compounds of Invention at 0.1 and 10 nM in the absence of doxycyline. Culture medium with RA and drugs is fully replaced after 7 days. Cell viability is measured by the release of lactate dehydrogenase (LDH) from necrotic cells into the culture medium and by measuring the capacity of cells to metabolize MTS tetrazolium (MTS) after 14 days in culture. LDH leakage is assessed according to the Cytotoxicity Detection KitPlus (Roche, Mannheim, Germany) and MTS reduction is assessed by the CellTiter 96® AQueous One Solution Cell Proliferation assay (Promega Corporation, Madison, Wis., USA).
Assay results for the experiments with α-syn over-expression are presented as the MTS reduction capacity (cell viability) of control cells (+dox), cells over-expressing α-syn (−dox), and cells over-expressing α-syn incubated with Compounds of the Invention at 0.1 nM (FIG. 18A) or 10 nM (FIG. 18B).

[2] = tested on: spontaneously hypertensive rats (SHR); test: Blood pressure in spontaneously hypertensive rat (SHR) model of hypertension; format: in vivo; settings: SC or PO, 4 hour study period (FIGS. 7-10)
Experimental: Male spontaneously hypertensive rats (SHR), approximately 3 months of age and weighting approximately 250 grams were utilized. Free access to standard lab chow for rats and reverse osmosis (RO) water was granted. All aspects of this work, including housing, experimentation and disposal of animals were performed in general accordance with the Guide for the Care and Use of Laboratory Animals (National Academy Press, Washington, D.C., 1996).
The animals were anaesthetized with sodium pentobarbital (50 mg/kg IP). The left carotid artery when compound dosed orally (PO) or subcutaneously (SC); and both left carotid and femoral artery when compound dosed intravenous (i.v.) were cannulated with a polyethylene catheter (38 cm in length; PE60, Portex, Ltd.) connected with a polyurethane tubing (12 cm in length; PU-40, Cat. #BB520-40, Scientific Commodities, Inc.), which was tunneled under the skin and exited through the nape of the neck. The arterial cannula was connected to a pressure transducer through a swivel system, allowing free roaming during continuous recording of mean arterial pressure and heart rate. The animals were housed individually with food and water freely available during recovery. On the following day, the arterial cannula was connected via a Statham (P 23×L) pressure transducer to a NEC/San-Ei amplifier and data acquisition and analysis system (Power Lab 8/SP) for direct mean arterial pressure and heart rate measurements.
The test compounds, dissolved in sterile saline, were administered subcutaneously (SC) or orally (PO), or by intravenous (i.v.) bolus administration in two minutes or the escalating doses of compound administration in every 30 minutes, with each dose and its strength delivered over 2 minutes as shown in the respective figures; the internal standard phentolamine was given by oral gavage. The control group received vehicle alone. Immediately before (−10 min and −5 min) and at 15 min, 30 min, 1 hr, 1.5 hr, 2 hr, 2.5 hr, 3 hr, 3.5 hr, and 4 hr post-dosing, systolic pressure blood pressure values were recorded.

[3] = molecular target: T1, human recombinant adrenergic α1D receptor (Homo sapiens, UniProt P25100); test: Radioligand binding, adrenergic α1D ([3H]Prazosin); settings: compound at 0.1 μM; [3H]Prazosin; repeat assays, each datapoint shown; read-out: Percentage inhibition of ligand binding, Adrenergic α1D
T1 construct: expressed in transfected cells; host or cells: HEK-293
T1 sequence (P25100 1-572): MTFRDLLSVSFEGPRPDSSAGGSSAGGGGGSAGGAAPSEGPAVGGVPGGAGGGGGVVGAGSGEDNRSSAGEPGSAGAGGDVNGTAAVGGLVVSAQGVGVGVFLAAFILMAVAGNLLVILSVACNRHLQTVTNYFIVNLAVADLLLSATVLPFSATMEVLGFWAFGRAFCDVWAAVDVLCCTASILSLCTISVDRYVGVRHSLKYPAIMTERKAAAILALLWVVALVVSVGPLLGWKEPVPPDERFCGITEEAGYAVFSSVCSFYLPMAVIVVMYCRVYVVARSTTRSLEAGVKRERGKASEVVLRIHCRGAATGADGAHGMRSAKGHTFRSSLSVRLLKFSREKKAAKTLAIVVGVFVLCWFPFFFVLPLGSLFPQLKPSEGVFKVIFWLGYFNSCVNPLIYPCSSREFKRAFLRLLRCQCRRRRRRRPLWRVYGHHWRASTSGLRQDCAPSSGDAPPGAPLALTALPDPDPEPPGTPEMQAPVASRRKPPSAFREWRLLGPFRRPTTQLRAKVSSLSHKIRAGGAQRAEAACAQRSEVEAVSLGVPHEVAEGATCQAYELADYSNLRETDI
Experimental: Compounds were incubated with 0.6 nM [3H]Prazosin for 60 min at 25° C. Non-specific binding was estimated in the presence of 10 μM phentolamine. Receptor proteins were filtered and washed, the filters were then counted to determine [3H]Prazosin specifically bound. […] Biochemical assay results are presented as the percent inhibition of specific binding in Table B1.

In the case of `Cc1ccc2c(c1)c1c(n2CC(O)c2ccncc2)CCN(C)C1` (single isomer, unassigned) [3b], the viability at 0.0001 µM [1] is reported as 70.8%, the systolic blood pressure [2] is reported as “lowered systolic blood pressure” and the inhibition at 0.1 µM [3] is reported as 18%.

`CN1CCc2c(c3cc(Cl)ccc3n2CC(O)c2ccncc2)C1` (single isomer, unassigned) [4a] showed a viability at 0.0001 µM [1] of 73.4%.

In the case of `Cc1ccc2c(c1)c1c(n2CC(C)(O)c2cccnc2)CCN(C)C1` (single isomer, unassigned) [5b, 1-(1,2,3,4-tetrahydro-2,8-dimethylpyrido[4,3-b]indol-5-yl)-2-(pyridin-3-yl)propan-2-ol], the viability at 0.0001 µM [1] is reported as 76.5% and the inhibition at 0.1 µM [3] is reported as 1%.

For `Cc1ccc2c(c1)c1c(n2CC(O)c2ccncc2)CCNC1` (single isomer, unassigned) [39a, 2-(8-methyl-1,2,3,4-tetrahydro-pyrido[4,3-b]indol-5-yl)-1-pyridin-4-yl-ethanol], the viability at 0.0001 µM [1] was 72.5%.

In the case of `Cc1ccc2c(c1)c1c(n2CC(O)c2ccncc2)CCN(C)C1` (stereo not drawn) [compound 3], the systolic blood pressure [2] is reported as “dose-dependent reduction in systolic blood pressure” and the inhibition at 0.1 µM [3] is reported as 12%.
